Measurements as given in patent US20260000642A1 (Tay Therapeutics Limited, priority 2022, published 2026).
Several values for one entry are separate records, joined by “and”; a condition that tells them apart may be missing. Equal values may be shown once.

System: collagen-induced arthritis in Lewis rats
Test: Collagen-induced arthritis (CIA) model in rats: body weight, paw volume, clinical scores, clinical observations; for Detailed Clinical Scores, left forelimb: key of the grades not given here; for Detailed Clinical Scores, left hind limb: key of the grades not given here; for Detailed Clinical Scores, right forelimb: key of the grades not given here; for Detailed Clinical Scores, right hind limb: key of the grades not given here; for Detailed Clinical Scores, score: key of the grades not given here; for Overall clinical score: key of the grades not given here
Settings: for Animal paw volume: Group 3 (CIA + Dexamethasone), individual animals 1-8; for Animal paw volume percent change (%): individual animals, CIA + reference compound (Groups 3, 4); for Average animal body weight percent change: CIA + compound; for Detailed Clinical Scores, left forelimb / Detailed Clinical Scores, left hind limb / Detailed Clinical Scores, right forelimb / Detailed Clinical Scores, right hind limb / Detailed Clinical Scores, score: CIA, per animal ID; for Overall clinical score: individual CIA rats
[1] = CIA rats, daily P.O. for 21 days

C[C@@H]1C[C@H]2[C@@H]3CCC4=CC(=O)C=C[C@]4(C)[C@@]3(F)[C@@H](O)C[C@]2(C)[C@@]1(O)C(=O)CO [dexamethasone]
animals that gained weight by the end of the study (of 8) (CIA rats, day 21 vs day 0, daily P.O. for 21 days): 4/8
diarrhea over the 21-day period [1]: did not have diarrhea
increase in body weight, day 21 compared to day 0 [1]: 1.3%
Animal paw volume (Day 0, L paw): 1.35 mL and 1.31 mL and 1.39 mL and 1.33 mL and 1.30 mL (2×) and 1.34 mL and 1.36 mL
Animal paw volume percent change (%) (Day 0, L paw): 0.00%
Animal paw volume (Day 0, R paw): 1.34 mL and 1.30 mL (2×) and 1.38 mL and 1.35 mL and 1.29 mL and 1.36 mL and 1.37 mL
Animal paw volume percent change (%) (Day 0, R paw): 0.00%
Average animal body weight percent change (Day 0): 0.00%
Detailed Clinical Scores, left forelimb (Day 0): 0
Detailed Clinical Scores, left hind limb (Day 0): 0
Detailed Clinical Scores, right forelimb (Day 0): 0
Detailed Clinical Scores, right hind limb (Day 0): 0
Detailed Clinical Scores, score (Day 0): 0
Overall clinical score (Day 0): 0
Average animal body weight percent change (Day 1): −2.80%
Average animal body weight percent change (Day 2): −3.22%
Average animal body weight percent change (Day 3): −4.37%
Average animal body weight percent change (Day 4): −4.95%
Average animal body weight percent change (Day 5): −4.95%
Animal paw volume (Day 6, L paw): 1.31 mL and 1.29 mL (3×) and 1.34 mL and 1.28 mL
Animal paw volume percent change (%) (Day 6, L paw): −2.97% and −1.53% and −3.61% and −3.02% and −3.09% and −3.08% and −4.12% and −5.51%
Animal paw volume (Day 6, R paw): 1.30 mL (3×) and 1.28 mL (2×) and 1.34 mL and 1.27 mL
Animal paw volume percent change (%) (Day 6, R paw): −3.00% and −1.16% and 2.91% and −1.56% and 12.70% and −5.90% and −5.13%
Average animal body weight percent change (Day 6): −4.41%
Detailed Clinical Scores, left forelimb (Day 6): 0
Detailed Clinical Scores, left hind limb (Day 6): 0
Detailed Clinical Scores, right forelimb (Day 6): 0
Detailed Clinical Scores, right hind limb (Day 6): 0
Detailed Clinical Scores, score (Day 6): 0
Overall clinical score (Day 6): 0
Average animal body weight percent change (Day 7): −3.35%
Average animal body weight percent change (Day 8): −3.90%
Average animal body weight percent change (Day 9): −1.84%
Average animal body weight percent change (Day 10): −2.30%
Average animal body weight percent change (Day 11): −1.24%
Animal paw volume (Day 12, L paw): 1.37 mL and 1.28 mL (2×) and 1.30 mL and 1.29 mL
Animal paw volume percent change (%) (Day 12, L paw): −10.41% and −7.66% and −1.44% and −3.40% and −1.54% and −6.54% and −3.00% and −5.51%
Animal paw volume (Day 12, R paw): 1.37 mL and 1.27 mL and 1.29 mL
Animal paw volume percent change (%) (Day 12, R paw): −6.74% and −3.09% and −0.73% and −7.43% and −1.56% and −9.27% and −7.01% and −5.86%
Average animal body weight percent change (Day 12): −1.18%
Detailed Clinical Scores, left forelimb (Day 12): 0
Detailed Clinical Scores, left hind limb (Day 12): 0
Detailed Clinical Scores, right forelimb (Day 12): 0
Detailed Clinical Scores, right hind limb (Day 12): 0
Detailed Clinical Scores, score (Day 12): 0
Overall clinical score (Day 12): 0
Animal paw volume (Day 13, L paw): 1.40 mL and 1.29 mL (2×) and 1.30 mL and 1.31 mL
Animal paw volume percent change (%) (Day 13, L paw): −8.92% and −5.36% and 0.72% and −3.02% and 0.00% and −4.23% and −2.25% and −5.51%
Animal paw volume (Day 13, R paw): 1.27 mL and 1.38 mL and 1.28 mL and 1.31 mL and 1.29 mL
Animal paw volume percent change (%) (Day 13, R paw): −5.99% and −2.32% and 0.36% and −7.43% and −0.78% and −6.95% and −3.69% and −5.86%
Average animal body weight percent change (Day 13): −0.91%
Detailed Clinical Scores, left forelimb (Day 13): 0
Detailed Clinical Scores, left hind limb (Day 13): 0
Detailed Clinical Scores, right forelimb (Day 13): 0
Detailed Clinical Scores, right hind limb (Day 13): 0
Detailed Clinical Scores, score (Day 13): 0
Overall clinical score (Day 13): 0
Animal paw volume (Day 14, L paw): 1.39 mL and 1.27 mL and 1.28 mL and 1.29 mL
Animal paw volume percent change (%) (Day 14, L paw): −8.18% and −5.36% and 0.00% and −4.53% and −1.54% and −5.00% and −3.75% and −8.46%
Animal paw volume (Day 14, R paw): 1.38 mL and 1.29 mL
Animal paw volume percent change (%) (Day 14, R paw): −5.62% and −2.70% and 0.00% and −8.92% and −2.33% and −7.72% and −5.17% and −8.06%
Average animal body weight percent change (Day 14): −1.24%
Detailed Clinical Scores, left forelimb (Day 14): 0
Detailed Clinical Scores, left hind limb (Day 14): 0
Detailed Clinical Scores, right forelimb (Day 14): 0
